From patent US20250002470A1, “NITROGEN-CONTAINING COMPOUND, PREPARATION METHOD THEREFOR AND APPLICATION THEREOF” (ZHEJIANG AIXPLORER BIOTECH CO., LTD., priority 2021, published 2025)
pIC50: −log10 of the molar value.

Legend:
hERG potassium channel = hERG potassium channel (Homo sapiens, UniProt Q12809); assay: Whole-cell patch-clamp (QPatch) of hERG current in HEK293 cells stably expressing hERG; format: cell-based
Procedure: In this study, a whole-cell patch-clamp technique was used to study the inhibitory effect of compounds on hERG potassium channels and to evaluate the risk of ventricular repolarization toxicity.
The HEK293 cell line stably expressing the hERG potassium channel cells was purchased from Creacell, Inc. (Cat. No. A-0320).
The HEK293 cell line that can stably express the hERG potassium channel, was cultured in DMEM medium containing 10% fetal bovine serum and 0.8 mg/mL G418 at 37° C. and 5% carbon dioxide.
Before the test, the cells were separated with TrypLET Express, centrifuged after adding medium to terminate digestion, resuspended the cell count, adjusted the cell density to 2-3×10^6 cells/mL, and then lightly mixed the cells on a room temperature equilibration shaker for 15-20 min.
Electrophysiological assays were performed using a fully automated patch-clamp QPatch 48 X (Sophion) device. The prepared cells were placed on a centrifuge on the Qpatch bench, the cells were washed using multiple centrifugation/suspension methods, and the cell culture medium was replaced with extracellular fluid. Remove an MTP-96 plate and place it in the location of the MTP source. Remove the QPlate chip and subsequently place the QPlate at the Qplate source location. The robotic arm scans the MTP-96 board and the QPlate chip barcode and grabs it to the measuring station. Draw the intracellular and external fluid from the liquid pool and add them to the intracellular fluid pool, cell and test cell pool of the QPlate chip, respectively. At the measuring station, all measuring sites on the QPlate undergo initial quality control. The quality control process includes aspirating the cell suspension from the cell vessel of the centrifuge and positioning the cells to the chip wells via a pressure controller to establish a high-resistance seal and create a whole-cell recording pattern.
The voltage stimulation protocol for whole-cell patch-clamp recording of whole-cell hERG potassium currents is as follows: the cell membrane voltage clamps at −80 mV when a whole-cell closure is formed. The clamping voltage is depolarized from −80 mV to −50 mV for 0.5 s (as a leakage current detection), then steps to 30 mV for 2.5 s, and then quickly recovers to −50 mV for 4 s to excite the tail current of the hERG channel. The data were collected repeatedly every 10 s to observe the effect of the drug on the hERG tail current. −50 mV stimulation at 0.5 s was used as the leakage current detection. The test data is collected by Qpatch and stored in the connected service station.
First, the current after the effect of each drug concentration and the blank control current are normalized 0, and then the inhibition rate corresponding to each drug concentration is calculated.
Calculate the mean and standard error for each concentration and calculate the semi-inhibitory concentration for each compound using the following Formula:
Y=Bottom+(Top−Bottom)/(1+10^((LogIC50−X)*HillSlope)) The above Formula was used to fit the dose-dependent effect nonlinearly, where C represents the test substance concentration, IC50 is the semi-inhibitory concentration, and h represents the Hill coefficient. Curve fitting and IC50 calculations were performed using Graphpad software.

[1] = In vivo pharmacokinetic evaluation in mice (IV and PO); conditions: CD-1 mice; for AUC / clearance / half-life / Vd / Cmax: mouse, plasma; for Vd: read-out: Vss
Procedure: CD-1 mice, after fasting overnight (free drinking), are divided into tail vein (IV) and gavage administration (PO) groups. The tail vein administration group collected 0.1 mL of blood from the orbital venous plexus before administration and 5 minutes, 15 minutes, 0.5 hours, 1 hour, 2 hours, 4 hours, 8 hours, 12 hours, and 24 hours after administration, and sample centrifugation at 4° C. for 5 minutes, and stored at −70° C. for testing. […] The plasma parent drug concentration was determined by LC-MS/MS.

NLRP3 = biological target: T1, NLRP3 (Homo sapiens, UniProt Q96P20); assay: IL-1β (interleukin-1β) secretion in IFN-γ-differentiated, LPS/ATP-stimulated THP-1 cells (half inhibition rate of NLRP3); format: cell-based; conditions: IFN-γ 25 ng/mL, LPS 50 ng/mL, ATP 5 mM
T1 construct: endogenous in cells; host or cells: THP-1 cells (IFN-γ differentiated, LPS primed, ATP stimulated)
Procedure: Remove THP-1 cells from liquid nitrogen and place in a 37° C. water bath until ice melt. Add the cells to 5 mL of warm cell culture medium and centrifuge at 1,000 rpm for 5 min. Discard the supernatant and resuspend and culture in a new cell culture medium.
THP-1 cells are cultured in the culture medium and passaged every 2-3 days.
2.1.1 Add 100 μL of cell suspension per well to the cell plate and incubate the cell plate in a 37° C., 5% CO2 incubator for 24 hours.
2.2.1 Discard the supernatant of IFN-γ differentiation after differentiation treatment. Add 100 μL of serum-free medium containing LPS (final concentration of 50 ng/mL) to the cell plate. The cell plates were incubated in a 37° C., 5% CO2 incubator for 4 h.
Place the cell plate in an incubator at 37° C. and 5% CO2 for 1 hour.
2.2.3 Add 20 μL of 6×ATP per well according to the plate map (final concentration 5 mM) and incubate the cell plate in a 37° C., 5% CO2 incubator for 1 h. Collect the supernatant (60 μL) and store at −20° C.
The capture antibody mAb Mt175 is diluted to 2 μg/mL with PBS (1:250) and added to the cell plate at 15 μL per well. Keep the plate overnight at 4° C.
2.4.1 Discard the coated antibody and wash 4 times with PBST.
2.4.3 Discard the blocking buffer and wash 4 times with PBST.
2.4.4 Add 25 μL of 2.2.3 collected supernatant sample per well and incubate for 2 h at room temperature.
2.4.5 Discard the samples and wash 4 times with PBST.
2.4.6 Add mAb7P10-biotin (concentration 0.5 ug/mL) to blocking buffer, add 15 μL per well to the cell plate, and incubate for 1 hour at room temperature.
2.4.7 Discard the antibody and wash 4 times with PBST.
2.4.8 Streptavidin-HRP was diluted 1:1000 in blocking buffer, 15 μL per well was added to the cell plate, and incubated for 1 hour at room temperature.
2.4.9 Discard streptavidin-HRP and wash 4 times with PBST.
2.4.10 Add 25 μL of HRP substrate (Surmodics-TMBW-0100-01) per well and incubate the cell plate until a blue product appears.
2.4.11 Add 25 μL of stop solution (Surmodics-LSTP-0100-01) per well, and the blue product turns yellow.
2.4.12 Read the cell plate at 450 nm with a microplate reader.

T1 sequence (Q96P20 whole entry): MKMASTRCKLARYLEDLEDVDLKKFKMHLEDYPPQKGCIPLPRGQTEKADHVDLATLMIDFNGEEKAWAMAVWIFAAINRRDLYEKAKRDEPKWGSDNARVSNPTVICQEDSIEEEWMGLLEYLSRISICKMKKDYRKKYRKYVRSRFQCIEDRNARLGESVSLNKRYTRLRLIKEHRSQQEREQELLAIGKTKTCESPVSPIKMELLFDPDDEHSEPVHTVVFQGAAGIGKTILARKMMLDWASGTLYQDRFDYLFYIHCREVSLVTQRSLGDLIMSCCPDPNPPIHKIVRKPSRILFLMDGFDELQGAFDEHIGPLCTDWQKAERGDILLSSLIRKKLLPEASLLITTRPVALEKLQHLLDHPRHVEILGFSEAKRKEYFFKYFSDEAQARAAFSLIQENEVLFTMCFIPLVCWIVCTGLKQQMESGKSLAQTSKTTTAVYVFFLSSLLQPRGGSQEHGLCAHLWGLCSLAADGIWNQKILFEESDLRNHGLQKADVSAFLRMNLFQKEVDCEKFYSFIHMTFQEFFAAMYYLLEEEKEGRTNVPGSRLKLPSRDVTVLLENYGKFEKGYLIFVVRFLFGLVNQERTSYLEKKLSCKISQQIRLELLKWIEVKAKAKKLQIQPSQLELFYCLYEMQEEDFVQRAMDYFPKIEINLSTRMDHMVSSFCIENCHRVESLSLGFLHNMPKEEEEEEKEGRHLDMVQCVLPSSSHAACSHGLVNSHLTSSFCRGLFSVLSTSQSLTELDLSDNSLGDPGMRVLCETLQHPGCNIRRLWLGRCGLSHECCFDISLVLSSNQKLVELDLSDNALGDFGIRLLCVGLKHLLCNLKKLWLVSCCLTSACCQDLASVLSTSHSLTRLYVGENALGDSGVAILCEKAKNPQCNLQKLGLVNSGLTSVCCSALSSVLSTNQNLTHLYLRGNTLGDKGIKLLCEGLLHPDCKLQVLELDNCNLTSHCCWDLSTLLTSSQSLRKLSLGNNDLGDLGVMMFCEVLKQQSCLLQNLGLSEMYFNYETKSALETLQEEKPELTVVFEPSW
Sequence of hERG potassium channel (Q12809 whole entry): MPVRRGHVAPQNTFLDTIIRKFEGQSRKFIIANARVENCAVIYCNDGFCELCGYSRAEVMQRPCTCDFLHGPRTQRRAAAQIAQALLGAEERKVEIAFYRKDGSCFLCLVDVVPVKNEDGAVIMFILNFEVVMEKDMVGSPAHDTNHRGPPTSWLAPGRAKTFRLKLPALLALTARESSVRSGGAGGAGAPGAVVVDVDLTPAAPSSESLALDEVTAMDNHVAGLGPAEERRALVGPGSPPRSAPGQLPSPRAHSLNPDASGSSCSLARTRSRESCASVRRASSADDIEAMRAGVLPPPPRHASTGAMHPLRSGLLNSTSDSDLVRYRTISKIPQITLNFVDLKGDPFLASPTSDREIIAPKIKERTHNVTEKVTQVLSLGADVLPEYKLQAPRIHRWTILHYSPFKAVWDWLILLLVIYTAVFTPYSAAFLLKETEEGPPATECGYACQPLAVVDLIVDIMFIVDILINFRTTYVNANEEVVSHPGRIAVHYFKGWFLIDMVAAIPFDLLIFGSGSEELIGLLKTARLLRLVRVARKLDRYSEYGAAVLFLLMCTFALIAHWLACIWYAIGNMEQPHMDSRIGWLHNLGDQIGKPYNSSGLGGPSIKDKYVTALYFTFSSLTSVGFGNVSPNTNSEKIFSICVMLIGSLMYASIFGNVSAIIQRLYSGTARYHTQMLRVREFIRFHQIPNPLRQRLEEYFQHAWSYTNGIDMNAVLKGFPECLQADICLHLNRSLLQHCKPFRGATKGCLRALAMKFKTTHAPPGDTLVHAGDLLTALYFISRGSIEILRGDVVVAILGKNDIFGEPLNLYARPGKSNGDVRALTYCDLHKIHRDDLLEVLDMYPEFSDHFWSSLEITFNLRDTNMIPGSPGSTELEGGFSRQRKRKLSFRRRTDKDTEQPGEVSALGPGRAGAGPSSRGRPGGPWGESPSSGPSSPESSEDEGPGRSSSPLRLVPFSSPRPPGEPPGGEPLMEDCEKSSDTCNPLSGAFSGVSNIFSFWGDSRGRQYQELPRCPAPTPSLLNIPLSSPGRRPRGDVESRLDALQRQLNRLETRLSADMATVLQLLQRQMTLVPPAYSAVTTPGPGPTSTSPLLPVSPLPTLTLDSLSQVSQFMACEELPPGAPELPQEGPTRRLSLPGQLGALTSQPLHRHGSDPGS

SMILES	pIC50 (hERG potassium channel)	F ([1]; PO, 20 mg/kg)	AUC ([1]; IV, 3 mg/kg)	clearance ([1]; IV, 3 mg/kg)	half-life ([1]; IV, 3 mg/kg)	Vd ([1]; IV, 3 mg/kg)	AUC ([1]; PO, 20 mg/kg)	Cmax ([1]; PO, 20 mg/kg)	half-life ([1]; PO, 20 mg/kg)	pIC50 (NLRP3)
Cc1nc(N[C@@H]2CCCN(CCO)C2)nnc1-c1ccc(C(F)(F)F)cc1O [Embodiment 44, (R)-2-(3-((1-(2-hydroxyethyl)piperidin-3-yl)amino)-5-methyl-1,2,4-triazin-6-yl)-5-(trifluoromethyl)phenol]	< 4.52	95.3%	2950 ng·h/mL	16.8 mL/min/kg	4.02 h	4.35 L/kg	18800 ng·h/mL	4530 ng/mL	3.62 h	9.40
Cc1nc(N[C@@H]2CCCN(C(C)(C)CO)C2)nnc1-c1ccc(C(F)(F)F)cc1O [Embodiment 132]	< 4.52	88.5%	3160 ng·h/mL	15.8 mL/min/kg	2.81 h	3.56 L/kg	18600 ng·h/mL	3070 ng/mL	2.53 h	8.39
Cc1nc(N[C@@H]2CCCN(CC(C)(C)O)C2)nnc1-c1ccc(C(F)(F)F)cc1O [Embodiment 133]	< 4.52									8.18
Oc1cc(C(F)(F)F)ccc1-c1nnc(N[C@@H]2CCCC[C@H]2O)c2c(F)cccc12 [Embodiment 135]	< 4.52									8.29
Oc1cc(C(F)(F)F)ccc1-c1nnc(N[C@@H]2CCCC[C@H]2O)c2cc(F)ccc12 [Embodiment 136]	< 4.52	93.8%	3250 ng·h/mL	15.1 mL/min/kg	6.07 h	2.35 L/kg	20300 ng·h/mL	6520 ng/mL	5.67 h	8.36
Oc1cc(C(F)(F)F)ccc1-c1nnc(N[C@@H]2CCCC[C@H]2O)c2ccc(F)cc12 [Embodiment 137]	< 4.52									8.70
C[C@]1(O)C[C@@H](Nc2nnc(-c3ccc(C(F)(F)F)cc3O)c3ccc(F)cc23)C1 [Embodiment 139]	< 4.52									8.72
Cc1nc(N[C@@H]2CCCN([C@@H](C)CO)C2)nnc1-c1ccc(C(F)(F)F)cc1O [Embodiment 147]	< 4.52	78.7%	3290 ng·h/mL	15.2 mL/min/kg	3.28 h	3.39 L/kg	17200 ng·h/mL	5710 ng/mL	2.76 h	8.05
Cc1nc(N[C@@H]2CCCN([C@H](C)CO)C2)nnc1-c1ccc(C(F)(F)F)cc1O [Embodiment 148]	< 4.52	95.2%	4750 ng·h/mL	10.5 mL/min/kg	4.17 h	3 L/kg	30100 ng·h/mL	7730 ng/mL	3.68 h	7.84
Cc1nc(N[C@@H]2CCCN(C[C@@H](C)O)C2)nnc1-c1ccc(C(F)(F)F)cc1O [Embodiment 150]	< 4.52									8.00
Cc1nc(N[C@@H]2CCCN(CCO)C2)nnc1-c1ccc(Cl)cc1O [Embodiment 152]	< 4.52									7.98
OCCN1CCC[C@@H](Nc2nnc(-c3ccc(Cl)cc3O)c3ccc(F)cc23)C1 [Embodiment 153]	< 4.52									8.62
OCCN1CCC[C@@H](Nc2nnc(-c3ccc(Cl)cc3O)c3ccccc23)C1 [Embodiment 155]	< 4.52									8.60
